This assay relates to B16F10 (malignant melanoma cells). The assay is described as follows: Effect of inhibiting melanin formation in melanocytes (Dooley method). The note with it: Mus musculus, B16-F10, 72 h; mice-derived B16F10 cells; treated continuously for 3 days; melanin dissolved in 1 N NaOH, absorbance at 405 nm; read-out: Inhibition of melanin formation IC50. The assay is classed as cell-based. Here is the method:
Each of the amide derivative compounds according to Examples was determined in terms of the effect of inhibiting melanin formation in melanocytes by using the Dooley method. As a cell line, a mice-derived B16F10 (malignant melanoma cells) available from Korean Cell Line Bank was used. In addition, DMEM (Cat No. 11195), FBS (Cat No. 16000-044) and antibiotic-antifungal agent (Cat No. 15240-062) required for culturing cells were purchased from Invitrogen (GIBCO). The cell line was cultured at 37° C. under 5% CO2. The cultured B16F10 cells were stripped off with 0.05% trypsin-EDTA, the same number of cells (1×10^4 cells/well) was inoculated into a 48-well plate, and then the medium was exchanged with a medium containing 10 ppm of each Example continuously for 3 days from the next day. As a positive control, kojic acid and 5-adamantan-1-yl-N-(2,4-dihydroxybenzyl)-2,4-dimethoxybenzamide were used. After the fifth day, the cells were treated with 1 N NaOH to carry out reaction at 60° C. for 2 hours so that melanin contained in the cells might be dissolved, and then the amount of melanin was measured by determining the absorbance at 405 nm. Then, the concentration (IC50) of each Example required for reducing melanin formation by half in melanocytes was calculated.
Take `O=c1cc(CO)occ1O` [Kojic acid, reference compound]: the IC50 came to 500000 nM.

Turning to `O=C(NCc1cccc(O)c1)C12CC3CC(CC(C3)C1)C2` [Example 6, Adamantane-1-Carboxylic Acid 3-Hydroxybenzylamide], the IC50 stood at 480 nM.

Consider `COc1cc(OC)c(C23CC4CC(CC(C4)C2)C3)cc1C(=O)NCc1ccc(O)cc1O` [5-adamantan-1-yl-N-(2,4-dihydroxybenzyl)-2,4-dimethoxybenzamide, reference compound], for which the IC50 came to 1100 nM.

On to `O=C(NCc1ccc(O)cc1)C12CC3CC(CC(C3)C1)C2` [Example 5, Adamantane-1-Carboxylic Acid 4-Hydroxybenzylamide], for which the IC50 turned out to be 11100 nM.

For `O=C(NCc1ccc(O)cc1O)C12CC3CC(CC(C3)C1)C2` [Example 1, Adamantane-1-Carboxylic Acid 2,4-Dihydroxybenzylamide], the IC50 came out at 15000 nM.

Turning to `O=C(NCc1cc(O)cc(O)c1)C12CC3CC(CC(C3)C1)C2` [Example 3, Adamantane-1-Carboxylic Acid 3,5-Dihydroxybenzylamide], the IC50 was determined as 20600 nM.

On to `O=C(NCc1ccc(O)c(O)c1)C12CC3CC(CC(C3)C1)C2` [Example 2, Adamantane-1-Carboxylic Acid 3,4-Dihydroxybenzylamide], for which the half-maximal inhibitory concentration (IC50) is 20 nM.

As for `O=C(NCc1ccccc1O)C12CC3CC(CC(C3)C1)C2` [Example 7, Adamantane-1-Carboxylic Acid 2-Hydroxybenzylamide], the IC50 came out at 2360 nM.

With `O=C(NCc1cc(O)ccc1O)C12CC3CC(CC(C3)C1)C2` [Example 4, Adamantane-1-Carboxylic Acid 2,5-Dihydroxybenzylamide], the half-inhibitory concentration (IC50) was determined as 1430 nM.

By IC50 is commonly meant the midpoint of a concentration-inhibition curve.

Values taken from US12017974B2, “Adamantanecarboxylic acid benzyl amide derivative compound and skin whitening composition comprising same” (AMOREPACIFIC CORPORATION, priority 2019, dated 2024).
